The source of these data is patent EP0180500A1, “Thieno and furo[2,3-c]pyrrole derivatives, process for their preparation and medicaments containing them” (LIPHA, LYONNAISE INDUSTRIELLE PHARMACEUTIQUE, priority 1984, dated 1986).

The test system of data set [1] is récepteurs histaminiques H2. Nature of the data set: Histamine-induced gastric hyperacidity in the anaesthetised rat.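 As to all read-outs here: Read-out is the continuously recorded acidity of a saline perfusate flowing through the stomach and collected at the pylorus, with at least 3 rats per dose.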 The note with it: for DE 50 et limites à 95 %: dose reducing histamine-induced hyperacidity by 50 %, histamine infusion 25 µg/kg/minute, single i.v. dose, measured at peak action, 95 % limits in brackets; for Puissance relative Ranitidine = 1: relative potency from DE 50 I.V.
Procedure: Hyperacidité gastrique à l'histamine chez le rat anesthésié : (Black et Coll., Nature, 1972, 236, 385) : Des rats anesthésiés à l'éthylurétane reçoivent une perfusion continue d'histamine (25 µg/kg/minute)dans une veine jugulaire. L'estomac est continuellement perfusé par du sérum physiologique à 37°C, sous un débit constant de 3 ml/minute.
Une canule pylorique collecte le perfusat dont l'acidité est mesurée de façon continue. Chaque composé à examiner est administré par la voie intraveineuse (une seule dose par rat).L'inhibition de l'acidité est mesurée au délai correspondant au maximum d'action (délai variable d'un composé à un autre). Un minimum de 3 rats est utilisé pour chaque dose essayée. On détermine, pour chaque composé actif de l'invention, la dose diminuant de 50 % (DE 50), l'hyperacidité induite par l'histamine. On mesure en outre, pour les composés les plus actifs, la durée d'action résultant de l'injection intraveineuse d'une dose unique correspondant à la DE 50 arrondie.

In the next data set the test system is acidité gastrique. Nature of the data set: Pylorus-ligated rats according to Shay (gastric antisecretory test). The note with it: Rattus norvegicus, ip, 4 h, read-out: DE 50 et limites à 95 %.
In data set [2] the target is récepteurs histaminiques H2 (Cavia porcellus, UniProt P47747). Description: Isolated guinea-pig atrium (histamine chronotropic effect, H2 blockade).
Chain of récepteurs histaminiques H2 (Cavia porcellus, UniProt P47747) (P47747 whole entry): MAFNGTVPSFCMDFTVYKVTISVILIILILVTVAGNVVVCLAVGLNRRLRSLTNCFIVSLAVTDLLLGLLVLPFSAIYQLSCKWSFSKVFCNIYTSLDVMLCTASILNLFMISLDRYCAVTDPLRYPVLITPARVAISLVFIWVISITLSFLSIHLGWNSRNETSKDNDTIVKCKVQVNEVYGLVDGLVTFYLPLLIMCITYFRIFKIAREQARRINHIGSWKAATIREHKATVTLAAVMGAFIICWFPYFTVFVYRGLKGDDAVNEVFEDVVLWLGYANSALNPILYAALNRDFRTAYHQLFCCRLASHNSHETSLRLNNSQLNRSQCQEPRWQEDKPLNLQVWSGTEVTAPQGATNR
Procedure: Oreillette isolée de cobaye : Des cobayes albinos pesant entre 300 et 400 g sont assomés et saignés. Après ouverture du thorax, l'oreillette droite est rapidement dégagée et placée dans une cuve à organe isolé contenant 100 ml de Krebs (composition en g/1 : NaCl 6,9 - KCl 0,35 - CaCl2 0,28 - Mg SO4 0,14 - NaHCO3 2,09 - KH2 P04 0,16, glucose 2) maintenu à 32°C et fortement oxygéné (95 % 02, 5 % CO2).
L'oreillette est reliée à une jauge de contrainte isométrique, sous une tension de 1 g. Les battements spontanés sont enregistrés sur un enregistreur galvanométrique.
Après une période de stabilisation de 1 heure, des doses cumulées d'histamine sont ajoutées au milieu de survie, toutes les 5 minutes, ce qui occasionne une accélération des battements par stimulation des récepteurs de l'histamine qui, dans les tissus cardiaques sont de nature H2. L'histamine est ajoutée jusqu'à ce que le rythme de l'oreillette n'augmente plus (effet maximum). On peut alors tracer la courbe représentant la variation du rythme en fonction de la concentration d'histamine dans le bain. Après rinçages et repos de 30 minutes, la même expérimentation est reprise 30 minutes après avoir ajouté un antagoniste H2 dans le bain (composé de l'invention ou produit de référence) .
Chaque composé est ainsi testé à 3 concentrations géométriquement croissantes qui provoquent, en cas de blocage des récepteurs H2, un déplacement vers la droite des courbes concentration d'histamine/effet chronotrope. Pour chaque composé actif, nous déterminons un pA2, c'est à dire le cologarithme de la concentration du composé de l'essai pour laquelle il faut doubler la concentration d'histamine afin de retrouver un effet chronotrope donné. […] Un minimum de 3 oreillettes est utilisé pour chaque composé essayé.
Cette préparation permet aussi de se rendre compte de la nature, réversible ou non, de l'inhibition. Dans le premier cas, il sera toujours possible de déplacer l'antagoniste des récepteurs en pratiquant des rinçages répétés ou en utilisant une concentration plus forte d'histamine, ce qui se traduira par des courbes concentration d'histamine/ef- fet chronotrope, parallèles mais supexposables.
Par contre, dans le deuxième cas (inhibition difficilement réversible), l'antagonisme H2 ne peut être complètement levé, ni par rinçages ni par des concentrations élevées d'histamine, ce qui se traduit par des courbes dose/effet non superposables (l'effet chronotrope maximum est de plus en plus faible quand la concentration de l'antagoniste H2 croit).
The test system of a further data set is rats. The note with it: rat, in vivo, iv. An excerpt:
(§1) Les composés de l'invention sont en général très peu toxiques.

The next data set deals with souris. The note with it: in vivo, iv.
Excerpt: as §1

Excerpt for acidité gastrique: Quatre heures plus tard, les animaux sont sacrifiés et le contenu des estomacs prélevé pour mesure de l'acidité. Les composés sont injectés intrapéritonéalement, juste après la ligature du pylore. La dose abaissant l'acidité gastrique de 50 % (DE 50) est calculée pour chaque composé, par rapport à un lot non traité. Chaque composé est testé à 3 doses géamétriquement espacées. Chaque lot comprend 10 rats.

Turning to `CCCCN1Cc2cc(CSCCNc3n[s+]([O-])nc3N)sc2C1` (centres unmarked) [Exemple 28], in data set [1], the “DE 50 et limites à 95 %” value is on record as 0,2 (0,08-0,5) mg/kg/I.V and the “Puissance relative Ranitidine = 1” value was 0,45. Also, the ED50 in the data set with acidité gastrique was 1 mg/kg. In data set [2], the Kb came to 42.7 nM.

As to `COCCN1Cc2cc(CSCCNc3n[s+]([O-])nc3N)sc2C1` (centres unmarked) [Exemple 33, N-[ [ [Dihydro-5,6 (méthoxy-2 éthyl) -5-4H-thiéno [2,3-c]pyrolyl-2]méthylthio]-2 éthyl] oxyde-1 thiadiazole [1,2,5] diamine-3,4], in data set [1], the “DE 50 et limites à 95 %” value is reported as 0,2 (0,08-0,5) mg/kg/I.V and the “Puissance relative Ranitidine = 1” value is 0,45. Moreover, the ED50 in the data set on acidité gastrique is 0.7 mg/kg. Besides, the Kb in data set [2] stood at 49 nM.

As to `CCCCCCN1Cc2cc(CSCCNc3n[s+]([O-])nc3N)sc2C1` (centres unmarked) [Exemple 30, N-[ [ (n.Hexyl-5 dihydro-5,5-4H-thiéno [2,3-c]pyrrolyl-2)méthylthio]-2 éthyl] oxyde-1 thiadiazole [1,2,5] diamine-3,4], in data set [1], the “DE 50 et limites à 95 %” value is on record as 0,2 (0,07-0,6) mg/kg/I.V and the “Puissance relative Ranitidine = 1” value is 0,45. Further, in the data set on acidité gastrique, the ED50 was found to be 0.5 mg/kg. Also, the Kb in data set [2] stood at 64.6 nM.

Consider `CCCN1Cc2cc(CSCCNc3c(N)c(=O)c3=O)sc2C1` [Exemple 34, Amino-3 [ [ (dihydro-5,6 n.propyl-5-4H-thiéno [2,3-c]pyrrolyl-2)méthylthio]-2 éthylamino]-4 cyclobutène dione-1,2], for which, in data set [1], the “DE 50 et limites à 95 %” value is reported as 0,25 (0,12-0,5) mg/kg/I.V and the “Puissance relative Ranitidine = 1” value is 0,36. Further, the ED50 with acidité gastrique came to 11 mg/kg. Also, the Kb in data set [2] is 63.1 nM.

As to `CCN1Cc2cc(CSCCNC(=C[N+](=O)[O-])NC)sc2C1` [Exemple 3, N-[ [ (Ethyl-5 dihydro-5,6-4H-thiéno [2,3-c]pyrrolyl-2)méthylthio]-2 éthyl]N'-méthyl nitro-2 éthènediamine-1,1], in data set [1], the “DE 50 et limites à 95 %” value is on record as 0,3 (0,1 -0,9) mg/kg/I.V and the “Puissance relative Ranitidine = 1” value was 0,3. In the data set with acidité gastrique, the ED50 stood at 8 mg/kg. The compound also had a Kb in data set [2] of 77.6 nM.

`CCN1Cc2cc(CSCCNc3n[s+]([O-])nc3NC)sc2C1` (centres unmarked) [Exemple 20, N-[ [ (Ethyl-5 dihydro-5,6-4H-thiéno [2,3-c]pyrrolyl-2)méthylthio]-2 éthyl]N'-méthyl oxyde-1 thiadiazole-[1,2,5] diamine-3,4]: in data set [1], the “DE 50 et limites à 95 %” value was 0,1 (0,03-0,3) mg/kg/I.V and the “Puissance relative Ranitidine = 1” value is 0,9. Also, in the data set on acidité gastrique, the ED50 stood at 20 mg/kg. This compound also showed a Kb in data set [2] of 42.7 nM.

Take `CCCCCN1Cc2cc(CSCCNC(=C[N+](=O)[O-])NC)sc2C1` [Exemple 18, N-[ [ (Dihydro-5,6 n.pentyl-5-4H-thiéno [2,3-c]pyrrolyl-2)méthylthio]-2 éthyl]N'-méthyl nitro-2 éthène diamine-1,1]: in data set [1], the “DE 50 et limites à 95 %” value was 0,5 (0,17-1,5) mg/kg/I.V and the “Puissance relative Ranitidine = 1” value is recorded as 0,18. The ED50 in the data set with acidité gastrique turned out to be 15 mg/kg. The same compound displayed a Kb in data set [2] of 89.1 nM.

For the compound `CCN1Cc2sc(CSCCNC(=C[N+](=O)[O-])NC)c(C)c2C1` [Exemple 19], the “DE 50 et limites à 95 %” value in data set [1] is reported as over 5 mg/kg/I.V. In addition, the ED50 in the data set with acidité gastrique was over 50 mg/kg. The compound further gave a Kb in data set [2] of 1260 nM.

For “N-[ [ (Isobutyl-5 dihydro-5,6-4H-thiéno [ 2,3-c ] pyrrolyl-2) méthylthio ]-2 éthyl J oxyde-1 thiadiazole [ 1,2,5 ] diamine-3,4 [Exemple 29]”, in data set [1], the “DE 50 et limites à 95 %” value was 0,1 (0,04-0,25) mg/kg/I.V and the “Puissance relative Ranitidine = 1” value is listed as 0,9.

With `CCN1Cc2cc(CSCCNC(=NC#N)NC)sc2C1` [Exemple 1], in data set [1], the “DE 50 et limites à 95 %” value is given as 0,6 (0,25-1,5) mg/kg/I.V and the “Puissance relative Ranitidine = 1” value is 0,15. Further, the ED50 with acidité gastrique turned out to be 19 mg/kg. For the same compound, the Kb in data set [2] is 105 nM.

Regarding `CCN1Cc2cc(CSCCC(N)=NS(N)(=O)=O)sc2C1` [Exemple 8, [ (Ethyl-5 dihydro-5,6-4H-thiéno [2,3-c]pyrrolyl-2)méthylthio]-3 N-sulfamoyl propanamidine], in data set [1], the “DE 50 et limites à 95 %” value is 0,5 (0,18-1,4) mg/kg/I.V and the “Puissance relative Ranitidine = 1” value is on record as 0,18. Also, the ED50 with acidité gastrique amounted to 18 mg/kg. Moreover, in data set [2], the Kb was 129 nM.

As to `CCCCCN1Cc2cc(CSCCNc3n[s+]([O-])nc3N)sc2C1` (centres unmarked) [Exemple 31], in data set [1], the “DE 50 et limites à 95 %” value is 0,15 (0,07-0,3) mg/kg/I.V and the “Puissance relative Ranitidine = 1” value is 0,6. For the same compound, the ED50 in the data set on acidité gastrique was 3.6 mg/kg. Further, in data set [2], the Kb was 30.9 nM.

With `CNC(=NC#N)NCCSCc1[nH]cnc1C` [Cimétidine, reference compound], in data set [1], the “DE 50 et limites à 95 %” value is listed as 0,4 (0,18-0,9) mg/kg/I.V. In the data set with acidité gastrique, the ED50 was 42 mg/kg.

Take `CCCN1Cc2cc(CSCCNc3n[s+]([O-])nc3N)sc2C1` (centres unmarked) [Exemple 22]: in the data set with rats, the effet toxique entry is “aucun effet toxique”. Further, the effet toxique result in the data set with souris is listed as “aucun effet toxique”. In addition, in data set [1], the “DE 50 et limites à 95 %” value is 0,05 (0,02-0,11) mg/kg/I.V and the “Puissance relative Ranitidine = 1” value was 1,8. In addition, the ED50 in the data set with acidité gastrique was 0.5 mg/kg. For the same compound, in data set [2], the Kb amounted to 17 nM.

Consider `CNC(=C[N+](=O)[O-])NCCSCc1ccc(CN(C)C)o1` [Ranitidine, reference compound], for which, in data set [1], the “DE 50 et limites à 95 %” value is 0,09 (0,05-0,17) mg/kg/I.V and the “Puissance relative Ranitidine = 1” value came out at 1. The ED50 in the data set with acidité gastrique amounted to 14 mg/kg. Besides, the Kb in data set [2] was 36.3 nM.

Take `CCN1Cc2cc(CSCCNc3nc(N)nn3C)sc2C1` [Exemple 11]: in data set [1], the “DE 50 et limites à 95 %” value was 0,4 (0,15-1) mg/kg/I.V and the “Puissance relative Ranitidine = 1” value is recorded as 0,22.

As to `CNC(=C[N+](=O)[O-])NCCCOc1cccc2c1CCN(C)C2` [Composé A, N-méthyl N' - [(méthyl-2 tétrahydro-1,2,3,4 isoqwnoléine-5 oxy)-3 propyl] nitro-2 éthène diamine-1,1, reference compound], the “DE 50 et limites à 95 %” value in data set [1] was over 5 mg/kg/I.V. Moreover, the ED50 in the data set with acidité gastrique was over 50 mg/kg. Besides, the Kb in data set [2] was 1320 nM.

With `C#CCNc1n[s+]([O-])nc1NCCSCc1cc2c(s1)CN(CC)C2` (centres unmarked) [Exemple 21, N-[ [ (Ethyl-5 dihydro-5,6-4H-thiéno [2,3-c]pyrrolyl-2)méthylthio]-2 éthyl] N'-propargyl oxyde-1 thiadiazole [1,2,5] diamine-3,4], in data set [1], the “DE 50 et limites à 95 %” value is given as 0,6 (0,3 -1,2) mg/kg/I.V and the “Puissance relative Ranitidine = 1” value was 0,15. Moreover, the ED50 in the data set on acidité gastrique amounted to 32 mg/kg. In addition, the Kb in data set [2] is 79.4 nM.

With `CCN1Cc2cc(CSCCNc3n[s+]([O-])nc3N)sc2C1` (centres unmarked) [Exemple 13, N-[ [ (Ethyl-5 dihydro-5,6-4H-thiéno [2,3-c]pyrrolyl-2)méthylthio]-2 éthyl] oxyde-1 thiadiazole [1,2,5,] diamine-3,4], in data set [1], the “DE 50 et limites à 95 %” value is on record as 0,03 (0,02-0,05) mg/kg/I.V and the “Puissance relative Ranitidine = 1” value was 3. For the same compound, in the data set on acidité gastrique, the ED50 came to 1.5 mg/kg. This compound showed a Kb in data set [2] of 20.9 nM.

Consider “N-Cyano N' -[ [ (dihydro-5,6 isopropyl-5-4H-thiéno [2,3-c] pyrrolyl-2) méthylthio]-2 éthyl] N" méthyl guanidine [Exemple 6]”, for which the “DE 50 et limites à 95 %” value in data set [1] is over 5 mg/kg/I.V.
